Measured values published in patent publication US20260007802A1, “ANNEALED MICROGEL PARTICLE SYSTEMS AND METHODS” (Tempo Therapeutics, Inc., priority 2023, published 2026).

Columns and labels:
[1] = system: 3T3 fibroblasts; assay: In vitro cytocompatibility, WST-8 proliferation assay (Example 2); format: cell-based, mouse; conditions: WST-8, days 1, 3 and 6
Procedure: Prior to animal experiments, formulations 1-3 and formulations 4-5 were tested (all in the presence and absence of annealing chemistry) for cytocompatibility using immortalized and primary cells. The WST-8 proliferation assay was used to assess cell viability and compare to positive (vehicle) and negative (cytotoxic agent) controls. The formulations used are listed in Table 5 below, along with their characteristics.
In vitro experiments were performed in well plate format. Cells were grown in culture media in adherent culture, and then exposed to either (i) hydrogel microgel particle suspensions, (ii) hydrogel microgel particle suspensions actively undergoing the annealing process, or (iii) the reaction conditions of the annealing process including soluble components but in the absence of hydrogel microgel particles. After exposure, cells were grown in adherent culture for […], measuring proliferation at 1, 3, and 6 days after exposure.
3T3 fibroblasts were grown to 90% confluent and then suspended in DMEM at 2.5×10^6 cells/mL. Then, 2 μL of cell suspension was mixed with MAP (see Table 1 for description of the different formulations tested for cytocompatibility) and added to a 96-well plate. […] Cell viability was then measured at 450 nm using WST-8 kit.

[2] = Chemical annealing kinetics, elastic modulus over time (Instron); format: physicochemical
Procedure: In the rat intradermal study (see Example 2), MAP was annealed using 0.1 mM PETMA (Pentaerythrivol tetras(2-mercaptoacetate)), a 4-thiol containing crosslinker. The thiol groups react with the free vinyl sulfones on the microgel particles in a thiol-ene Michael addition reaction. […] The optimization of the chemical annealing was performed with formulation 1-3. […] Briefly, gels initially formulated at a volume fraction of 100% was thoroughly mixed with the crosslinkers (0.1-0.2 mM) at different pHs, which led to diluting gels to 80%. The elastic modulus was measured at different time points using Instron.
Then, the different HA-MAP formulations were annealed using the selected annealing agent at 0.2 mM at pH 7.4. […] Elastic modulus over time was measured using Instron.
The final volume fraction for annealing was 80% for all annealing conditions.

SMILES	cytotoxic effect on cell viability [1]	time to full annealing ([2]; annealing agent with formulations 1-3 gels, pH 7.4)	time before it is annealed ([2]; pH 6.5)	effect on kinetic of annealing and final stiffness ([2]; 0.3% wt, three batches of 4a, 0.2 mM PEG-dithiol 3.4 kDa, pH 7.4)
O=C(CS)OCC(COC(=O)CS)(COC(=O)CS)COC(=O)CS [PETMA, Pentaerythritol tetrakis(2-mercaptoacetate)]	dose dependent cytotoxic effect	≤ 5 min	< 10 min	–
CCN(CC)CC(=O)Nc1c(C)cccc1C [lidocaine]	–	–	–	reduces the final stiffness after annealing and slightly slows down the reaction
